Data from patent US6699494B2, “Pharmaceutical composition and method for treating premature labor” (Columbia Laboratories, Inc., priority 1997, dated 2004).
Like-named read-outs stand apart in the source and are kept apart here.

How the values were obtained:
[1] = Human ex vivo uterine perfusion model, vagina to uterus transfer of tritiated terbutaline; assay type: in vitro ADME
Experimental: This model verifies the preferential direct delivery of terbutaline from the vagina to the uterus. In this study, uteri obtained from women undergoing hysterectomies for benign diseases were immediately connected to an organ perfusion system in which temperature, CO2 concentration, uterine artery pressure and flow were maintained constant. A perfusion model was opened without recirculation. The direct transfer of terbutaline from the vagina to the uterus was analyzed by applying a mixture of tritiated [^3H] terbutaline and unlabeled terbutaline to the cuff of vaginal tissue remaining attached to the cervix after the hysterectomy. Tritiated terbutaline was only used for autoradiography analysis of sections of uterine tissue. The experiments were interrupted at predetermined time intervals after vaginal applications […]. At the end of the perfusion period, ^3H and ^14C radioactivity was measured in endometrial and myometrial samples. Tritiated water and ^14C dextran helped to determine that the extend of non-specific vagina to uterus transport (due to leaks of the system) was less than 10%. The myometrial extraction of terbutaline and its corresponding venous outflow during the 12 hour uterine perfusions are shown in FIG. 3 below. The ^3H terbutaline started to be recovered in the venous effluent uterine during the first 3 hours. Terbutaline flow was maximal at the 6th-9th hour and then decreased for up to 48 hours of perfusion. Terbutaline flow in the venous effluent uterine is the reflection of terbutaline exiting from the organ. Accumulation of tritiated terbutaline was maximal in the myometrium at 12 hours of perfusion. (Mean±SD of 18.40±3.40 ng/100 mg of tissue) and decreased slowly. Significant accumulation of ^3H terbutaline still remained at 48 hours of perfusion, with 20% of the original concentration present.

[2] = Single dose pharmacokinetic study of transvaginal terbutaline gel, serum terbutaline by GC-MS; assay type: in vivo, human
Experimental: The objective of this study was to assess the pharmacokinetic parameters of the terbutaline and polycarbophil composition following a single dose regimen comparing progressively increasing concentrations. This open-label study was conducted in ten healthy female volunteers with a mean age of 25±SD (Standard Deviation) of 3.93 years. This study consisted of a 30 day screening period and a 24 hour treatment period with a follow-up evaluation conducted two days after administration of the final dose. The drug was administered transvaginally at 9:00 a.m. A wash out period of at least one week as observed between each of the four doses of the drug. All subjects were given an estro-progestative pill, to ensure that all study participants were at the same point in their menstrual cycle. They began dosing on day 7 to 10 of their pill intake for the single dose study. Serum terbutaline concentrations were obtained from blood samples collected predosing on the mornings of treatment, at frequent intervals during the initial 24 hours post dose (0.5, 1, 1.5, 2, 4, 6, 8, 12, 24 hours) and at 48 hours post dose. Serum terbutaline concentrations were determined using gas chromatography-mass spectrometry. Pharmacokinetic parameters were computed using concentration-time data for each subject following intake of the last dose of investigational drug on the morning of study day 6. The following pharmacokinetic parameters were computed: area under the drug concentration-time curve from time 0 to time t (AUC0-t), where t is the time of the last measurable concentration; peak drug concentration (Cmax); time to peak drug concentration (tmax); steady state drug concentration (CSS); and, elimination half-life (t½).
All ten subjects completed the study for the 0.1%, 0.2%, and 0.4% (w/w) concentrations. For each dose, the onset of serum terbutaline concentrations occurred within 1 to 2 hours. (See FIG. 1 and Table 2 showing terbutaline concentrations for each tested dose). […] Concentrations were still detectable for up to 48 hours (mean±SEM (Standard Error of the Mean) of 113.11±32.25 pg/mL for the 0.4% concentration).
(§1) Both the single and multiple dose studies discussed in the preceding examples also evaluated the 0.8% w/w concentration. The average age±SD for the single and multiple dose studies at the 0.8 dose were 26±3.42 and 26±4.12, respectively. The pharmacokinetic parameters from the study follow in Tables 4 and 5.

[3] = terbutaline inhaler, dysmenorrhea; cited from earlier work
[4] = cited from earlier work
[5] = Side effects at the 0.8% dose in the single and multiple dose studies; assay type: in vivo, human; conditions: transvaginal gel
From the text: as §1
A number of patients in the study (40%), however, experienced side effects such as tachycardia at this dose. […] This dose can be a method of practicing the invention, but is certainly not the most preferred embodiment.

[6] = oral administration, cited from earlier work
[7] = ex vivo perfused uterus, vaginal application
[8] = female, human, 0.1 % (w/w), 0.1% gel, serum, mean ± SEM, n=10
[9] = female, human, 0.2 % (w/w), 0.2% gel, serum, mean ± SEM, n=10
[10] = female, human, 0.4 % (w/w), 0.4% gel, serum, mean ± SEM, n=10
[11] = female, human, 0.8 % w/w, 0.8% gel, serum, mean ± SEM, n=8

SMILES: CC(C)(C)NCC(O)c1cc(O)cc(O)c1 (stereo not shown) [Terbutaline, 5-[2-[(1,1-dimethylethyl)amino]-1-hydroxyethyl]-1,3-benzenediol]
- time terbutaline lasted in the myometrium ([1]; after a single vaginal application): over 48 hours
- accumulation of tritiated terbutaline in the myometrium ([1]; at 12 hours of perfusion, Mean±SD): 18.40±3.40 ng/100 mg of tissue
- 3H terbutaline remaining, share of the original concentration ([1]; at 48 hours of perfusion): 20%
- time of maximal accumulation of tritiated terbutaline in the myometrium [1, 7]: 12 h
- time within which 3H terbutaline started to be recovered in the venous effluent [1, 7]: ≤ 3 h
- time for which serum concentrations were still detectable [2]: up to 48 hours
- Css ([2]; 0.1% gel, serum, mean ± SEM, n=10): 0.056 ± 0.041 ng/mL
- Css ([2]; 0.2% gel, serum, mean ± SEM, n=10): 0.191 ± 0.108 ng/mL
- Css ([2]; 0.8% gel, serum, mean ± SEM, n=8): 0.579 ± 0.3 ng/mL
- Cmax [2, 8]: 0.117 ± 0.059 ng/mL
- Tmax [2, 8]: 13 ± 6 h
- AUC(0-t) ([2]; female, human, 0.1 % (w/w), 0.1% gel, serum, mean ± SEM, n=10, read-out: AUC0 to 48): 2.28 ± 1.84 ng·h/mL
- half-life ([2]; female, human, 0.1 % (w/w), 0.1% gel, serum, mean ± SEM, n=10, read-out: t½ (converted)): 18 ± 12 h
- Cmax [2, 9]: 0.297 ± 0.17 ng/mL
- Tmax [2, 9]: 13 ± 6 h
- AUC(0-t) ([2]; female, human, 0.2 % (w/w), 0.2% gel, serum, mean ± SEM, n=10, read-out: AUC0 to 48): 8.01 ± 4.7 ng·h/mL
- half-life ([2]; female, human, 0.2 % (w/w), 0.2% gel, serum, mean ± SEM, n=10, read-out: t½ (converted)): 29 ± 15 h
- Cmax [2, 10]: 0.479 ± 0.149 ng/mL
- Tmax [2, 10]: 14 ± 7 h
- AUC(0-t) ([2]; female, human, 0.4 % (w/w), 0.4% gel, serum, mean ± SEM, n=10, read-out: AUC0 to 48): 11.9 ± 5.28 ng·h/mL
- half-life ([2]; female, human, 0.4 % (w/w), 0.4% gel, serum, mean ± SEM, n=10, read-out: t½ (converted)): 24 ± 16 h
- AUC(0-t) ([2]; female, human, 0.8 % w/w gel, 0.8% gel, serum, mean ± SEM, n=8, read-out: AUC0 to 48): 23.2 ± 13.5 ng·h/mL
- Cmax [2, 11]: 0.787 ± 0.434 ng/mL
- Tmax [2, 11]: 10 ± 3 h
- half-life ([2]; female, human, 0.8 % w/w, 0.8% gel, serum, mean ± SEM, n=8, read-out: t½ (converted)): 20 ± 7 h
- half-life ([2]; female, human, serum, according to the dose administered (0.1%-0.4%), read-out: Mean t½ estimates): 18 to 29 h
- concentration at 48 h ([2]; female, human, serum, other: transvaginal, 0.4 % (w/w), 0.4% concentration, mean±SEM): 0.113 ± 0.0323 ng/mL
- onset of serum terbutaline concentrations ([2]; for each dose (0.1%, 0.2%, 0.4%)): 1 to 2 h
- duration of the effect of each spray [3]: ≥ 1 h
- known serum levels for toxicity ([4]; prior art): 3000 pg/mL
- known serum threshold susceptible to trigger systemic adverse events such as tachycardia and tremor ([4]; reported in prior art): 3,000-3,500 pg/mL
- patients who experienced side effects such as tachycardia [5]: 40%
- Bioavailability ([6]; extensive first-pass sulphation): 15 and 20%
- further decrease of bioavailability by concomitant food intake [6]: 30%
